In patent US12692232B2, “Indole carboxamide compound, preparation therefor and use thereof” (NANJING RUISHUNING MEDICAL TECHNOLOGY CO., LTD., priority 2021, dated 2026):

Test system: rat model of pulmonary hypertension induced by monocrotaline
Assay: Rat model of pulmonary hypertension induced by monocrotaline
Type: in vivo
Settings: for reduction of TNF-α levels compared with the MCT model: 25 mg/kg; for RV/(LV + S): MCT model 0.45 ± 0.03; for TNF-α in lung tissue: MCT model 0.94 ± 0.07; for mPAP: MCT model 33.7 ± 4.3; for small pulmonary artery lesions compared with the model group (histopathology, H&E): treatment groups
Method: The preventive effect of the compounds of the present invention (as exemplified by compound 1-1 obtained in Example 1) on pulmonary hypertension was determined using a rat model of pulmonary hypertension induced by monocrotaline. The method was as follows:
Grouping of animals: 70 male SD rats with weigh of 200±20 g were randomly divided into 7 groups, i.e., a normal control group, a monocrotaline (MCT) model group, a treatment group of low-dose compound 1-1 (10 mg/kg) (MCT), a treatment group of medium-dose compound 1-1 (25 mg/kg) (MCT), a treatment group of high-dose compound 1-1 (50 mg/kg) (MCT), a treatment group of medium-dose indole analogue 3-[(1-methyl-1H-indole-2-carbonyl)amino]propionic acid (25 mg/kg) disclosed in CN2019107285315 (MCT), and a sildenafil group (150 mg/kg) (MCT), with 10 rats in each group.
Experimental procedure: MCT was prepared as a 2% solution with a mixture of ethanol and saline (2:8) and the solution was injected intraperitoneally once at a dose of 60 mg/kg body weight in all groups except the normal control group. Each rat in the normal control group was injected intraperitoneally once with a solution prepared from ethanol and saline in a volume ratio of 2:8. Compound 1-1 obtained in Example 1, the indole analogue 3-[(1-methyl-1H-indole-2-carbonyl)amino]propionic acid disclosed in CN2019107285315, or the positive drug sildenafil was administered by gavage to the mice in the treatment groups on the day of modelling, and saline was administered by gavage to the mice in the normal control group and the MCT model group. The drugs were administered by gavage once a day for 28 days until 12 hours before test.
Determination of hemodynamic indexes: a polyethylene plastic microcatheter filled with heparin solution (0.9% sodium chloride solution+10 U/mL heparin) was inserted into the right external jugular vein of a rat, and the other end of the microcatheter was connected to a miniature pressure transducer to monitor the pressure changes. […] After 30 minutes of stabilization, the POWERLAB multi-channel intelligent physiological signal acquisition and recording system was applied to acquire, record and analyze the indexes.
Determination of the index of right ventricular (RV) hypertrophy: at the end of the experiment, the heart was removed by dissection of the thorax and the atrial tissue was cut off. The right ventricle (RV), left ventricle (LV), and interventricular septum (S) were isolated along the edge of the interventricular septum, and the RV, LV, and S were weighed after absorbing water with filter paper and the ratio RV/(LV+S) was used to reflect the degree of RV hypertrophy.
Pathological examination of pulmonary vessels: tissue blocks were taken from the same site in the lower lobe of the right lung and fixed in 10% neutral formaldehyde (pH=7.4) for 2 days. Routine paraffin embedding, serial sections, H&E staining and light microscopy were performed to observe morphological changes in small pulmonary arteries.
Effect on inflammatory factors in lung tissue: Lung tissues were collected from each group of rats, homogenates of lung tissue were prepared and centrifuged and supernatants were collected. The protein level in the supernatant was determined by Coomassie brilliant blue method, and tumor necrosis factor-α (TNF-α) in rats was determined by an ELISA kit (Beijing 4A Biotech Co., Ltd.). […]

[1] = MCT + 25 mg/kg gavage once a day 28 days

| Structure (SMILES) | reduction of TNF-α levels compared with the MCT model [%] | RV/(LV + S) (MCT + 25 mg/kg gavage 28 days) | TNF-α in lung tissue (MCT + 25 mg/kg gavage 28 days) [g/g protein] | mPAP [1] [mmHg] | small pulmonary artery lesions compared with the model group (histopathology, H&E) | RV/(LV + S) (MCT + 10 mg/kg gavage 28 days) | TNF-α in lung tissue (MCT + 10 mg/kg gavage 28 days) [g/g protein] | mPAP (MCT + 10 mg/kg gavage once a day 28 days) [mmHg] | RV/(LV + S) (MCT + 50 mg/kg gavage 28 days) | TNF-α in lung tissue (MCT + 50 mg/kg gavage 28 days) [g/g protein] | mPAP (MCT + 50 mg/kg gavage once a day 28 days) [mmHg] |
| --- | --- | --- | --- | --- | --- | --- | --- | --- | --- | --- | --- |
| Cn1c(C(=O)NCCC(=O)O)cc2ccccc21 [3-[(1-methyl-1H-indole-2-carbonyl)amino]propionic acid, reference compound] | 37.2 | 0.38 ± 0.04 | 0.59 ± 0.07 | 28.9 ± 3.4 | significantly reduced |  |  |  |  |  |  |
| CC(=O)OCCCNC(=O)c1c(C=O)c2ccccc2n1C [compound 1-1, propyl 3-[(3-formyl-1-methyl-1H-indole-2-carbonyl)amino]acetate] | 58.5 | 0.31 ± 0.04 | 0.39 ± 0.05 | 25.8 ± 2.5 | significantly reduced | 0.37 ± 0.04 | 0.65 ± 0.08 | 26.0 ± 2.8 | 0.28 ± 0.03 | 0.34 ± 0.05 | 20.3 ± 3.0 |
